# Measured values taken from patent publication US11510899B2, “RTX toxin production inhibitor and composition for treating symptom of vibrio infection by using same” (priority 2018, dated 2022).
# Target: T1, HlyU (Vibrio vulnificus, UniProt A0A3Q0L222)
# T1 sequence (A0A3Q0L222 1-98): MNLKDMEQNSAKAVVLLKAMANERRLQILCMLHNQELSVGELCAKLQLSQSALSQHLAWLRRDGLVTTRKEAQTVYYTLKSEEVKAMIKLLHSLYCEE
# Test: Vibrio reporter strain, pKK1305 (PrtxA-lux, activated by HlyU) in wild-type V. vulnificus
# Assay type: cell-based
# Conditions: Compound Group I; HlyU activity (RLU, DMSO = 100%), 30° C.
# Protocol: Meanwhile, verification experiments using the Vibrio reporter strain were also conducted so as to exclude false positive results. It was identified that the effect of the compound was not limited only to E. coli using Vibrio vulnificus, each having the reporter plasmid (pZW1608) inhibited by HlyU, which was used for the E. coli reporter strain, and the plasmid (pKK1305) in which the promoter of the rtxA gene activated by HlyU is cloned in front of the bioluminescence operon.
# The constructed wild-type Vibrio reporter strain was treated with sample compounds and cultured at 30° C., and cell growth and luminescence were measured in the same manner as the E. coli strain screening (FIG. 3 and FIG. 4).
# In order to identify whether or not a specific structure of CM2660 has a significant effect on HlyU inhibition, the effect of HlyU inhibition by the compound CM2660 and derivatives thereof, “Compound Group I” (FIG. 5) was verified. For the purpose, the pKK1305 plasmid prepared in Example 1 was conjugated to the wild-type Vibrio vulnificus, and the Vibrio reporter strain (pKK1305 in wild-type V. vulnificus) thus produced was treated with various concentrations of the derivative compounds.
# While culturing at 30° C., the growth of the reporter strain and the degree of bioluminescence thereof were measured in the same manner as in Example 1, and the RLU was calculated. The RLU of the DMSO-treated control group was expressed as 100% HlyU activity. HlyU activity was plotted according to the concentration of the derivative compound, and EC50 (half maximal effective concentration) was calculated using GraphPad Prism 7.0 (GraphPad Software, San Diego, Calif.) (FIG. 6, Table 2).
row,Compound,EC50 [µM]
1,O=C(Nc1scc2c1c(=O)oc1ccccc12)c1ccccc1 [LJ4451],993
2,O=C(CCc1ccccc1)Nc1scc2c1c(=O)oc1ccccc12 [LJ4458],875

# Same assay, conditions: Compound Group II; HlyU activity (RLU, DMSO = 100%), 30° C.; read-out: EC50
row,Compound,EC50 [µM]
1,O=C(O)C#Cc1ccc([N+](=O)[O-])cc1 [LJ4526],140
2,CC(C)(C)OC(=O)CNC(=O)C#Cc1ccc(N)cc1 [LJ4531],118
3,CC(C)(C)OC(=O)CNC(=O)C#Cc1cccnc1 [LJ4532],52.4
4,O=C(O)CNC(=O)C#Cc1ccccc1 [LJ4533],1140
